System: Dsg2^mut/mut mice
Test: Cytokine arrays, cytokine expression in hearts of Dsg2^mut/mut mice treated with Bay 11-7082
Format: in vivo
Text: Quantitative data (mean±SEM; n=5) for expression of selected cytokines in hearts of vehicle-treated wildtype (WT) mice, Dsg2^mut/mut mice and Dsg2^mut/mut mice treated with Bay 11-7082. * P<0.05 compared to WT; †P<0.05 for treated vs. untreated Dsg2^mut/mut mice.
To characterize production of chemical mediators of the immune response in ACM, we used arrays to measure 111 different cytokines in the hearts of Dsg2^mut/mut mice and compared the amounts to those measured in the hearts of WT mice and Dsg2^mut/mut mice treated with Bay 11-7082. We observed substantial expression of multiple cytokines in the hearts of Dsg2^mut/mut mice. […] Powerful inflammatory mediators were expressed in Dsg2^mut/mut hearts including IL-1β (up by ~13-fold compared to WT hearts), IFNγ (~5-fold), IL-12 (~6-fold) and TNFα (~2-fold). […] Finally, there were increases in some molecules that fulfill anti-inflammatory roles such as IL-1Ra (up by ~4-fold).

[1] = cytokine expression level, mouse heart

## Cc1ccc(S(=O)(=O)/C=C/C#N)cc1 [Bay11-7082]
ACM (Dsg2^mut/mut) mice treated with Bay 11-7082, result in words
  LIX (CXCL5) level: markedly reduced
Dsg2^mut/mut mice treated with Bay 11-7082, result in words
  OPN expression: reduced
[1]
  Adiponectin, Dsg2^mut/mut (Bay11-7082) vs Dsg2^mut/mut: <1
  Adiponectin, Dsg2^mut/mut (Bay11-7082) vs WT: <1
  Amphiregulin, Dsg2^mut/mut (Bay11-7082) vs Dsg2^mut/mut: <1
  Amphiregulin, Dsg2^mut/mut (Bay11-7082) vs WT: <1
  Angiopoietin-1, Dsg2^mut/mut (Bay11-7082) vs Dsg2^mut/mut: <1
  Angiopoietin-1, Dsg2^mut/mut (Bay11-7082) vs WT: <1
  Angiopoietin-2, Dsg2^mut/mut (Bay11-7082) vs Dsg2^mut/mut: 1-2
  Angiopoietin-2, Dsg2^mut/mut (Bay11-7082) vs WT: <1
  Angiopoietin-like 3, Dsg2^mut/mut (Bay11-7082) vs Dsg2^mut/mut: <1
  Angiopoietin-like 3, Dsg2^mut/mut (Bay11-7082) vs WT: <1
  BAFF/BLyS/TNFSF13B, Dsg2^mut/mut (Bay11-7082) vs Dsg2^mut/mut: <1
  BAFF/BLyS/TNFSF13B, Dsg2^mut/mut (Bay11-7082) vs WT: <1
  C1qR1/CD93, Dsg2^mut/mut (Bay11-7082) vs Dsg2^mut/mut: <1
  C1qR1/CD93, Dsg2^mut/mut (Bay11-7082) vs WT: <1
  C-Reactive Protein/CRP, Dsg2^mut/mut (Bay11-7082) vs Dsg2^mut/mut: <1
  C-Reactive Protein/CRP, Dsg2^mut/mut (Bay11-7082) vs WT: <1
  CCL2/JE/MCP-1, Dsg2^mut/mut (Bay11-7082) vs Dsg2^mut/mut: <1
  CCL2/JE/MCP-1, Dsg2^mut/mut (Bay11-7082) vs WT: <1
  CCL3/CCL4/MIP-1a/B, Dsg2^mut/mut (Bay11-7082) vs Dsg2^mut/mut: <1
  CCL3/CCL4/MIP-1a/B, Dsg2^mut/mut (Bay11-7082) vs WT: <1
  CCL5/RANTES, Dsg2^mut/mut (Bay11-7082) vs Dsg2^mut/mut: <1
  CCL5/RANTES, Dsg2^mut/mut (Bay11-7082) vs WT: <1
  CCL6/C10, Dsg2^mut/mut (Bay11-7082) vs Dsg2^mut/mut: <1
  CCL6/C10, Dsg2^mut/mut (Bay11-7082) vs WT: <1
  CCL17/TARC, Dsg2^mut/mut (Bay11-7082) vs Dsg2^mut/mut: <1
  CCL17/TARC, Dsg2^mut/mut (Bay11-7082) vs WT: <1
  CCL19/MIP-3B, Dsg2^mut/mut (Bay11-7082) vs Dsg2^mut/mut: <1
  CCL19/MIP-3B, Dsg2^mut/mut (Bay11-7082) vs WT: <1
  CCL20/MIP-3a, Dsg2^mut/mut (Bay11-7082) vs Dsg2^mut/mut: <1
  CCL20/MIP-3a, Dsg2^mut/mut (Bay11-7082) vs WT: <1
  CCL21/6Ckine, Dsg2^mut/mut (Bay11-7082) vs Dsg2^mut/mut: <1
  CCL21/6Ckine, Dsg2^mut/mut (Bay11-7082) vs WT: <1
  CCL22/MDC, Dsg2^mut/mut (Bay11-7082) vs Dsg2^mut/mut: <1
  CCL22/MDC, Dsg2^mut/mut (Bay11-7082) vs WT: <1
  CD14, Dsg2^mut/mut (Bay11-7082) vs Dsg2^mut/mut: 1-2
  CD14, Dsg2^mut/mut (Bay11-7082) vs WT: <1
  CD40/TNFRSF5, Dsg2^mut/mut (Bay11-7082) vs Dsg2^mut/mut: <1
  CD40/TNFRSF5, Dsg2^mut/mut (Bay11-7082) vs WT: <1
  CD160, Dsg2^mut/mut (Bay11-7082) vs Dsg2^mut/mut: <1
  CD160, Dsg2^mut/mut (Bay11-7082) vs WT: <1
  CX3CL1/Fractalkine, Dsg2^mut/mut (Bay11-7082) vs Dsg2^mut/mut: <1
  CX3CL1/Fractalkine, Dsg2^mut/mut (Bay11-7082) vs WT: <1
  CXCL9/MIG, Dsg2^mut/mut (Bay11-7082) vs Dsg2^mut/mut: <1
  CXCL9/MIG, Dsg2^mut/mut (Bay11-7082) vs WT: <1
  CXCL13/BLC/BCA-1, Dsg2^mut/mut (Bay11-7082) vs Dsg2^mut/mut: <1
  CXCL13/BLC/BCA-1, Dsg2^mut/mut (Bay11-7082) vs WT: 2-4
  CXCL16, Dsg2^mut/mut (Bay11-7082) vs Dsg2^mut/mut: <1
  CXCL16, Dsg2^mut/mut (Bay11-7082) vs WT: <1
  Chemerin, Dsg2^mut/mut (Bay11-7082) vs Dsg2^mut/mut: <1
  Chemerin, Dsg2^mut/mut (Bay11-7082) vs WT: <1
  Chitinase 3-like 1, Dsg2^mut/mut (Bay11-7082) vs Dsg2^mut/mut: <1
  Chitinase 3-like 1, Dsg2^mut/mut (Bay11-7082) vs WT: <1
  Coagulation Factor III/Tissue Factor, Dsg2^mut/mut (Bay11-7082) vs Dsg2^mut/mut: <1
  Coagulation Factor III/Tissue Factor, Dsg2^mut/mut (Bay11-7082) vs WT: <1
  Complement Component C5/C5a, Dsg2^mut/mut (Bay11-7082) vs Dsg2^mut/mut: <1
  Complement Component C5/C5a, Dsg2^mut/mut (Bay11-7082) vs WT: <1
  Complement Factor D, Dsg2^mut/mut (Bay11-7082) vs Dsg2^mut/mut: <1
  Complement Factor D, Dsg2^mut/mut (Bay11-7082) vs WT: <1
  Cystatin C, Dsg2^mut/mut (Bay11-7082) vs Dsg2^mut/mut: <1
  Cystatin C, Dsg2^mut/mut (Bay11-7082) vs WT: <1
  DKK-1, Dsg2^mut/mut (Bay11-7082) vs Dsg2^mut/mut: <1
  DKK-1, Dsg2^mut/mut (Bay11-7082) vs WT: <1
  DPPIV/CD26, Dsg2^mut/mut (Bay11-7082) vs Dsg2^mut/mut: <1
  DPPIV/CD26, Dsg2^mut/mut (Bay11-7082) vs WT: 1-2
  E-Selectin/CD62E, Dsg2^mut/mut (Bay11-7082) vs Dsg2^mut/mut: <1
  E-Selectin/CD62E, Dsg2^mut/mut (Bay11-7082) vs WT: <1
  EGF, Dsg2^mut/mut (Bay11-7082) vs Dsg2^mut/mut: <1
  EGF, Dsg2^mut/mut (Bay11-7082) vs WT: 1-2
  Endoglin/CD105, Dsg2^mut/mut (Bay11-7082) vs Dsg2^mut/mut: <1
  Endoglin/CD105, Dsg2^mut/mut (Bay11-7082) vs WT: <1
  Endostatin, Dsg2^mut/mut (Bay11-7082) vs Dsg2^mut/mut: <1
  Endostatin, Dsg2^mut/mut (Bay11-7082) vs WT: <1
  Eotaxin (CCL11), Dsg2^mut/mut (Bay11-7082) vs Dsg2^mut/mut: <1
  Eotaxin (CCL11), Dsg2^mut/mut (Bay11-7082) vs WT: <1
  FGF acidic, Dsg2^mut/mut (Bay11-7082) vs Dsg2^mut/mut: <1
  FGF acidic, Dsg2^mut/mut (Bay11-7082) vs WT: <1
  FGF-21, Dsg2^mut/mut (Bay11-7082) vs Dsg2^mut/mut: <1
  FGF-21, Dsg2^mut/mut (Bay11-7082) vs WT: <1
  FLt-3 Ligand, Dsg2^mut/mut (Bay11-7082) vs Dsg2^mut/mut: <1
  FLt-3 Ligand, Dsg2^mut/mut (Bay11-7082) vs WT: <1
  Fetuin A/AHSG, Dsg2^mut/mut (Bay11-7082) vs Dsg2^mut/mut: <1
  Fetuin A/AHSG, Dsg2^mut/mut (Bay11-7082) vs WT: <1
  G-CSF, Dsg2^mut/mut (Bay11-7082) vs Dsg2^mut/mut: <1
  G-CSF, Dsg2^mut/mut (Bay11-7082) vs WT: 1-2
  GDF-15, Dsg2^mut/mut (Bay11-7082) vs Dsg2^mut/mut: <1
  GDF-15, Dsg2^mut/mut (Bay11-7082) vs WT: <1
  GM-CSF, Dsg2^mut/mut (Bay11-7082) vs Dsg2^mut/mut: <1
  GM-CSF, Dsg2^mut/mut (Bay11-7082) vs WT: <1
  Gas 6, Dsg2^mut/mut (Bay11-7082) vs Dsg2^mut/mut: <1
  Gas 6, Dsg2^mut/mut (Bay11-7082) vs WT: <1
  HGF, Dsg2^mut/mut (Bay11-7082) vs Dsg2^mut/mut: <1
  HGF, Dsg2^mut/mut (Bay11-7082) vs WT: 4-6
  I-TAC (CXCL11), Dsg2^mut/mut (Bay11-7082) vs Dsg2^mut/mut: <1
  I-TAC (CXCL11), Dsg2^mut/mut (Bay11-7082) vs WT: <1
  IFN-y, Dsg2^mut/mut (Bay11-7082) vs Dsg2^mut/mut: <1
  IFN-y, Dsg2^mut/mut (Bay11-7082) vs WT: 1-2
  IGFBP-1, Dsg2^mut/mut (Bay11-7082) vs Dsg2^mut/mut: <1
  IGFBP-1, Dsg2^mut/mut (Bay11-7082) vs WT: 1-2
  IGFBP-2, Dsg2^mut/mut (Bay11-7082) vs Dsg2^mut/mut: <1
  IGFBP-2, Dsg2^mut/mut (Bay11-7082) vs WT: <1
  IGFBP-3, Dsg2^mut/mut (Bay11-7082) vs Dsg2^mut/mut: <1
  IGFBP-3, Dsg2^mut/mut (Bay11-7082) vs WT: <1
  IGFBP-5, Dsg2^mut/mut (Bay11-7082) vs Dsg2^mut/mut: <1
  IGFBP-5, Dsg2^mut/mut (Bay11-7082) vs WT: <1
  IGFBP-6, Dsg2^mut/mut (Bay11-7082) vs Dsg2^mut/mut: <1
  IGFBP-6, Dsg2^mut/mut (Bay11-7082) vs WT: <1
  IL-1a (IL-1F1), Dsg2^mut/mut (Bay11-7082) vs Dsg2^mut/mut: <1
  IL-1a (IL-1F1), Dsg2^mut/mut (Bay11-7082) vs WT: <1
  IL-1ra (IL-1F3), Dsg2^mut/mut (Bay11-7082) vs Dsg2^mut/mut: <1
  IL-1ra (IL-1F3), Dsg2^mut/mut (Bay11-7082) vs WT: 1-2

Reference: patent US12708665B2, “Anti-IL-1β antibody therapy in arrhythmogenic cardiomyopathy (ACM)” (Beth Israel Deaconess Medical Center, Inc., priority 2019, dated 2026)
